The source made the active and inactive calls. The rule behind the calls is not given here.
Columns and labels:
[1] = (§1) Inhibition of NF-kappaB (unknown origin) expressed in human L428 cells after 2 hrs by luciferase reporter gene assay; assay type: cell-based; conditions: L-428, 2 h
Homo sapiens = organism: Homo sapiens; assay: as §1; assay type: cell-based
L-428 [2] = assay: Cytotoxicity against human L428 cells after 24 by XTT assay; assay type: functional, cell-based
L-428 [3] = assay: Cytotoxicity against human L428 cells after 48 by XTT assay; assay type: functional, cell-based
A549 [4] = assay: Anti-migratory activity against human A549 cells assessed as reduction in wound closure at 7.94 uM after 48 hrs by wound-scratch assay; assay type: functional, cell-based
L-428 [5] = assay: Inhibition of NFkappaB p50 subunit expression in nuclear fractions of human L428 cells at 2.5 ug/ml after 2 hrs by Western method; assay type: functional, cell-based
L-428 [6] = assay: Inhibition of NFkappaB p65 subunit expression in nuclear fractions of human L428 cells at 2.5 ug/ml after 2 hrs by Western method; assay type: functional, cell-based
L-428 [7] = assay: Inhibition of NFkappaB RelB subunit expression in nuclear fractions of human L428 cells at 2.5 ug/ml after 2 hrs by Western method; assay type: functional, cell-based
L-428 [8] = assay: Inhibition of NFkappaB p50 subunit expression in cytosolic fractions of human L428 cells at 2.5 ug/ml after 2 hrs by Western method; assay type: functional, cell-based
L-428 [9] = assay: Inhibition of NFkappaB p65 subunit expression in cytosolic fractions of human L428 cells at 2.5 ug/ml after 2 hrs by Western method; assay type: functional, cell-based
L-428 [10] = assay: Inhibition of NFkappaB RelB subunit expression in cytosolic fractions of human L428 cells at 2.5 ug/ml after 2 hrs by Western method; assay type: functional, cell-based
A549 [11] = assay: Anti-migratory activity against human A549 cells assessed as reduction in wound closure at 5.6 uM after 48 hrs by wound-scratch assay; assay type: functional, cell-based
A549 [12] = assay: Anti-migratory activity against human A549 cells assessed as reduction in wound closure at 2.6 uM after 48 hrs by wound-scratch assay; assay type: functional, cell-based

IC50 [1]	Compound	inhibition (Homo sapiens)	IC50 (L-428 [2])	IC50 (L-428 [3])	inhibition (L-428 [5])	inhibition (L-428 [6])	inhibition (L-428 [7])	inhibition (L-428 [8])	inhibition (L-428 [9])	inhibition (L-428 [10])	also measured
9.9 µM	O=C1C=C(Br)/C(=C/Br)O1	Dose-dependent effect	5.16 µM	3.05 µM	Active	Active	Active	Active	Active	Active	Activity (A549 [4]): Active
–	CCCCCCCCCCCN=C=S	Dose-dependent effect	–	–	–	–	–	–	–	–	–
12.8 µM	O=C(CCCCCCCC(Cl)CN=C=S)CC(=O)N[C@H]1CCOC1=O (some centres undefined)	Dose-dependent effect	15.1 µM	18.3 µM	Active	Active	Active	Active	Active	Active	Activity (A549 [12]): Active
–	CCCCCCCc1[nH]c2ccccc2c(=O)c1O	Dose-dependent effect	–	–	–	–	–	–	–	–	–
–	C#CCCCCCCCCC(=O)CC(=O)N[C@H]1CCOC1=O	Dose-dependent effect	–	–	–	–	–	–	–	–	–
–	CCCC(=O)N[C@H]1CCOC1=O	Dose-dependent effect	–	–	–	–	–	–	–	–	–
–	COc1cc(/C=C/C(=O)CC(=O)/C=C/c2ccc(O)c(OC)c2)ccc1O	Active	–	–	–	–	–	–	–	–	–
–	CCCCCCCCCC(=O)CC(=O)N[C@H]1CCOC1=O	Dose-dependent effect	–	–	–	–	–	–	–	–	–

Compound	IC50 [1]	inhibition (Homo sapiens)	IC50 (L-428 [2])	IC50 (L-428 [3])	inhibition (L-428 [5])	inhibition (L-428 [6])	inhibition (L-428 [7])	inhibition (L-428 [8])	inhibition (L-428 [9])	inhibition (L-428 [10])	also measured
O=C(CCCCCCCCCN=C=S)CC(=O)N[C@H]1CCOC1=O	4.1 µM	Dose-dependent effect	13.3 µM	12.4 µM	Active	Active	Active	Active	Active	Active	Activity (A549 [11]): Active
